These results are taken from ChEMBL document CHEMBL5113480, “Discovery of novel biphenyl-substituted pyridone derivatives as potent non-nucleoside reverse transcriptase inhibitors with promising oral bioavailability” (Eur J Med Chem, 2022).

The term EC50 denotes the midpoint of the concentration-response curve. Usually CC50 stands for the concentration giving 50% cytotoxicity. The term IC50 denotes the concentration at which inhibition is half-maximal.

Where only a bound is given, the exact number is not on record here.

The subject of data set [1] is Human immunodeficiency virus 1. Description: Antiviral activity against HIV-1 K103N mutant infected in human MT4 cells assessed as reduction in viral replication by MTT assay. The class given is functional, organism-based. The settings on record: Human immunodeficiency virus 1, K103N mutant. (Tetrazolium assays rely on reduction of a dye to a coloured formazan, in cell work by metabolically active cells.)

The subject of data set [2] is Human immunodeficiency virus 1. Description: Antiviral activity against HIV-1 E138K mutant infected in human MT4 cells assessed as reduction in viral replication by MTT assay. The settings on record: Human immunodeficiency virus 1, E138K mutant. The class given is functional, organism-based.
For data set [3], the system named is Human immunodeficiency virus 1. Description: Antiviral activity against HIV-1 IIIB infected in human MT4 cells assessed as reduction in viral replication by MTT assay. The class given is functional, organism-based. The settings on record: Human immunodeficiency virus 1, IIIB.
The nature of data set [4]: Selectivity index, ratio of CC50 for cytotoxicity against human MT4 cells to EC50 of Anti-HIV activity against HIV-1 IIIB infected in human MT4 cells. In kind it is toxicity, cell-based. The settings on record: read-out: Ratio CC50/EC50.
For data set [5], the system named is Human immunodeficiency virus 1. Description: Antiviral activity against HIV-1 Y181C mutant infected in human MT4 cells assessed as reduction in viral replication by MTT assay. In kind it is functional, organism-based. The settings on record: Human immunodeficiency virus 1, Y181C mutant.
Data set [6] has as its system Human immunodeficiency virus 1. Description: Antiviral activity against HIV-1 F227L-V106A mutant infected in human MT4 cells assessed as reduction in viral replication by MTT assay. The settings on record: Human immunodeficiency virus 1, F227L-V106A mutant. The class given is functional, organism-based.
Data set [7] concerns Human immunodeficiency virus 1. Description: Antiviral activity against HIV-1 ROD infected in human MT4 cells assessed as reduction in viral replication by MTT assay. The class given is functional, organism-based.
Data set [8] deals with Human immunodeficiency virus 1. Description: Antiviral activity against HIV-1 K103N-Y181C mutant infected in human MT4 cells assessed as reduction in viral replication by MTT assay. The settings on record: Human immunodeficiency virus 1, K103N-Y181C mutant. The class given is functional, organism-based.
Data set [9] deals with Human immunodeficiency virus 1. Description: Antiviral activity against HIV-1 Y188L mutant infected in human MT4 cells assessed as reduction in viral replication by MTT assay. The class given is functional, organism-based. The settings on record: Human immunodeficiency virus 1, Y188L mutant.
A short description of data set [10]: Cytotoxicity against human MT4 cells assessed as reduction on cell growth by MTT assay. The class given is toxicity, cell-based.
Data set [11] concerns Human immunodeficiency virus 1. Description: Antiviral activity against HIV-1 L100I mutant infected in human MT4 cells assessed as reduction in viral replication by MTT assay. The settings on record: Human immunodeficiency virus 1, L100I mutant. The class given is functional, organism-based.
Data set [12] has as its target Human immunodeficiency virus type 1 reverse transcriptase (Human immunodeficiency virus 1, UniProt Q72547). Description: Inhibition of wild type HIV-1 Reverse transcriptase.

For `Cn1c(Cn2ccc(C(F)(F)F)c(Oc3c(F)cc(-c4cc(F)cc(C#N)c4)cc3F)c2=O)n[nH]c1=O`, the EC50 was 2.07 µM in [1]; 5.2 µM in data set [2]; 1.64 µM in data set [3]; > 35 µM in [5]; > 35 µM in data set [6]; > 35 µM in data set [7]. Also, the values for the EC50 in data set [8], in [9] and in [11] were > 35 µM, > 35 µM and 2.97 µM, respectively. The selectivity ratio in data set [4] turned out to be 10.2. In addition, the CC50 in [10] was 16.6 µM. This compound also gave an IC50 in data set [12] of 3.25 µM.
`Cc1cccc(-c2cc(F)c(Oc3c(C(F)(F)F)ccn(Cc4n[nH]c(=O)n4C)c3=O)c(F)c2)c1`: the EC50 in data set [3] and in [7] was > 35 µM each time. Further, in data set [4], the selectivity ratio is < 1. The CC50 in data set [10] was determined as 20.9 µM.
Turning to `Cc1cc(C#N)cc(C)c1Oc1nc(Nc2ccc(C#N)cc2)nc(N)c1Br` [ETRAVIRINE], the EC50 was 0.029 µM in data set [3], > 35 µM in data set [7], 0.031 µM in [8] and 0.018 µM in data set [9]. In [4], the selectivity ratio was > 1600. Further, in data set [10], the CC50 is > 4.6 µM.
With `Cn1c(Cn2ccc(C(F)(F)F)c(Oc3ccc(-c4ccc(F)cc4)cc3Cl)c2=O)n[nH]c1=O`, the EC50 in data set [3] and in [7] was > 35 µM in each case. Also, the selectivity ratio in data set [4] is < 1. Moreover, the CC50 in [10] came out at 16.7 µM.
As for `Cn1c(Cn2ccc(C(F)(F)F)c(Oc3cc(C#N)cc(-c4ccc(F)c(C#N)c4)c3)c2=O)n[nH]c1=O`, the EC50 in data set [1] is 0.051 µM; in data set [2], 0.077 µM; in data set [3], 0.043 µM; in [5], 0.45 µM; in data set [6], > 35 µM; in data set [7] it was > 35 µM. The EC50 was determined as 1.01 µM in [8], 1.52 µM in [9] and 0.089 µM in data set [11]. In data set [4], the selectivity ratio was 2060. The CC50 in data set [10] came out at 87.9 µM. Further, it took 0.29 µM to reach half-maximal inhibition in data set [12] (IC50).
As to `Cc1cc(Oc2c(C(F)(F)F)ccn(Cc3n[nH]c(=O)n3C)c2=O)ccc1-c1cccc(F)c1`, the EC50 in data set [1] is 10.9 µM; in data set [2], 4 µM; in data set [3], 2.77 µM; in data set [5], > 35 µM; in [6], > 35 µM; in data set [7], > 35 µM. In addition, the EC50 in data set [8] was > 35 µM; in data set [9] it was > 35 µM; in [11], 2.14 µM. In data set [4], the selectivity ratio came out at 20.1. In addition, the half-maximal cytotoxic concentration (CC50) in data set [10] stood at 55.9 µM. The compound also registered an IC50 in [12] of 4.71 µM.
For `Cn1c(Cn2ccc(C(F)(F)F)c(Oc3cc(C#N)cc(-c4cc(F)cc(C#N)c4)c3)c2=O)n[nH]c1=O`, the EC50 is 0.026 µM in [1]; 0.062 µM in data set [2]; 0.03 µM in [3]; 0.18 µM in [5]; > 35 µM in data set [6]; > 35 µM in data set [7]. Moreover, the concentration for a half-maximal effect (EC50) in data set [8] came to 0.42 µM; in data set [9], 0.88 µM; in [11], 0.05 µM. The selectivity ratio in data set [4] stood at 2810. In data set [10], the CC50 was found to be 84.4 µM. The half-inhibitory concentration (IC50) in data set [12] was 0.17 µM.
On to `Cc1cccc(-c2ccc(Oc3c(C(F)(F)F)ccn(Cc4n[nH]c(=O)n4C)c3=O)c(C)c2)c1`, for which the EC50 in data set [3] and in data set [7] was > 35 µM throughout. The selectivity ratio in data set [4] was ≤ 2. Further, in [10], the CC50 was found to be 19.1 µM.
As for `Cc1ccc(-c2ccc(Oc3c(C(F)(F)F)ccn(Cc4n[nH]c(=O)n4C)c3=O)c(C)c2)cc1`, the concentration giving a half-maximal response (EC50) in [3] and in data set [7] was > 35 µM each time. For the same compound, the selectivity ratio in data set [4] is ≤ 1. For the same compound, the CC50 in data set [10] is 16.9 µM.
For the compound `Cn1c(Cn2ccc(C(F)(F)F)c(Oc3ccc(-c4ccc(F)cc4)c(F)c3)c2=O)n[nH]c1=O`, the 50% effective concentration (EC50) is 8.92 µM in data set [3] and > 35 µM in data set [7]. For the same compound, the selectivity ratio in [4] was 2.87. Besides, in [10], the cytotoxic concentration (CC50) came out at 25.6 µM.
The corresponding values for `Cn1c(Cn2ccc(C(F)(F)F)c(Oc3ccc(-c4ccc(F)c(C#N)c4)cc3)c2=O)n[nH]c1=O` are 7.28 µM, > 35 µM, 6.75 and 49.1 µM.
The corresponding values for `Cc1ccc(-c2ccc(Oc3c(C(F)(F)F)ccn(Cc4n[nH]c(=O)n4C)c3=O)c(F)c2)cc1` are > 35 µM, > 35 µM, < 1 and 38 µM.
The corresponding values for `Cc1cccc(-c2ccc(Oc3c(C(F)(F)F)ccn(Cc4n[nH]c(=O)n4C)c3=O)cc2)c1` are > 35 µM, > 35 µM, < 1 and 32.3 µM.
With `Cn1c(Cn2ccc(C(F)(F)F)c(Oc3ccc(-c4ccc(F)cc4)cc3)c2=O)n[nH]c1=O`, the EC50 in data set [3] and in data set [7] was > 35 µM each time. Also, in data set [4], the selectivity ratio was < 1. The CC50 in [10] is 36.5 µM.
For the compound `Cc1cccc(-c2ccc(Oc3c(C(F)(F)F)ccn(Cc4n[nH]c(=O)n4C)c3=O)c(F)c2)c1`, the EC50 in data set [3] and in data set [7] was > 35 µM throughout. Further, in [4], the selectivity ratio was ≤ 1. Moreover, the cytotoxic concentration (CC50) in [10] was found to be 20.3 µM.
On to `Cn1c(Cn2ccc(C(F)(F)F)c(Oc3c(F)cc(-c4ccc(F)cc4)cc3F)c2=O)n[nH]c1=O`, for which the EC50 in data set [3] and in data set [7] was > 35 µM throughout. The selectivity ratio in data set [4] is ≤ 2. The cytotoxic concentration (CC50) in [10] worked out at 18.2 µM.
`Cn1c(Cn2ccc(C(F)(F)F)c(Oc3ccc(-c4cccc(F)c4)cc3Cl)c2=O)n[nH]c1=O`: the EC50 in data set [3] and in [7] was > 35 µM in each case. Further, the selectivity ratio in data set [4] is < 1. Moreover, the CC50 in data set [10] worked out at 20.1 µM.
For the compound `Cc1ccc(-c2ccc(Oc3c(C(F)(F)F)ccn(Cc4n[nH]c(=O)n4C)c3=O)cc2F)cc1`, the EC50 in data set [3] is 8.05 µM; in [7], > 35 µM. In addition, in data set [4], the selectivity ratio worked out at 3.52. Also, the half-maximal cytotoxic concentration (CC50) in data set [10] was 28.2 µM.
The like results for `Cc1cc(Oc2c(C(F)(F)F)ccn(Cc3n[nH]c(=O)n3C)c2=O)ccc1-c1ccc(F)cc1` were, in that order, > 35 µM, > 35 µM, ≤ 4 and 23.7 µM.
The like results for `Cc1ccc(-c2ccc(Oc3c(C(F)(F)F)ccn(Cc4n[nH]c(=O)n4C)c3=O)c(Cl)c2)cc1` were, in that order, > 35 µM, > 35 µM, < 1 and 50.9 µM.
The corresponding values for `Cn1c(Cn2ccc(C(F)(F)F)c(Oc3ccc(-c4cccc(F)c4)cc3)c2=O)n[nH]c1=O` are > 35 µM, > 35 µM, < 1 and 48.3 µM.
In the case of `Cc1cccc(-c2ccc(Oc3c(C(F)(F)F)ccn(Cc4n[nH]c(=O)n4C)c3=O)cc2F)c1`, the EC50 in data set [1] was > 35 µM; in data set [3] it was 4.58 µM; in data set [5] it was > 35 µM; in data set [6], 7.66 µM; in data set [7] it was > 35 µM; in data set [8] it was > 35 µM. The figures for the half-maximal effective concentration (EC50) in [9] and in [11] were > 35 µM and 4.83 µM, respectively. For the same compound, the selectivity ratio in data set [4] worked out at 6.05. For the same compound, the CC50 in [10] was determined as 27.7 µM. This compound returned an IC50 in [12] of 17.9 µM.
Turning to `Cn1c(Cn2ccc(C(F)(F)F)c(Oc3ccc(-c4ccc(F)cc4)cc3F)c2=O)n[nH]c1=O`, the half-maximal effective concentration (EC50) in [3] and in data set [7] was > 35 µM throughout. Further, the selectivity ratio in data set [4] is < 1. In addition, in data set [10], the CC50 is 24.1 µM.
`Cc1ccc(-c2ccc(Oc3c(C(F)(F)F)ccn(Cc4n[nH]c(=O)n4C)c3=O)cc2C)cc1`: the EC50 in data set [3] and in [7] was > 35 µM in each case. Besides, in data set [4], the selectivity ratio was < 1. Further, the CC50 in data set [10] was 26.6 µM.
Consider `Cn1c(Cn2ccc(C(F)(F)F)c(Oc3ccc(-c4cccc(F)c4)cc3F)c2=O)n[nH]c1=O`, for which the concentration for a half-maximal effect (EC50) in data set [3] and in data set [7] was > 35 µM in each case. For the same compound, the selectivity ratio in data set [4] is ≤ 1. Besides, the CC50 in [10] stood at 46.8 µM.
On to `Cc1ccc(-c2ccc(Oc3c(C(F)(F)F)ccn(Cc4n[nH]c(=O)n4C)c3=O)cc2)cc1`, for which the EC50 in [3] and in data set [7] was > 35 µM throughout. Further, the selectivity ratio in [4] was < 1. Further, the cytotoxic concentration (CC50) in data set [10] worked out at 25 µM.
Turning to `Cc1ccc(-c2cc(F)c(Oc3c(C(F)(F)F)ccn(Cc4n[nH]c(=O)n4C)c3=O)c(F)c2)cc1`, the concentration for a half-maximal effect (EC50) in data set [3] and in data set [7] was > 35 µM each time. The selectivity ratio in data set [4] was < 1. Besides, the CC50 in [10] was 20.5 µM.
On to `Cc1cccc(-c2ccc(Oc3c(C(F)(F)F)ccn(Cc4n[nH]c(=O)n4C)c3=O)c(Cl)c2)c1`, for which the EC50 in [3] and in [7] was > 35 µM each time. Further, in data set [4], the selectivity ratio was < 1. Also, the CC50 in data set [10] was determined as 24.7 µM.
